Assay results reported in article PMC10975611, “Heterocycles 52: The Drug-Likeness Analysis of Anti-Inflammatory Thiazolo[3,2-b][1,2,4]triazole and Imidazo[2,1-b][1,3,4]thiadiazole Derivatives” (Pharmaceuticals, 2024).

What was measured:
[1] = Lipophilicity by reversed-phase thin-layer chromatography (RP-TLC), isopropanol-water mobile phase; type: physicochemical; settings: for mRM (arithmetic mean of the experimental retention factors RM): RP-18F254s plates, isopropanol 70–90% in water; for RM0 (relative lipophilicity, RM extrapolated to pure water): Soczewinski Wachtmeister equation, isopropanol 70–90%; for lipophilicity (in words): chromatographic lipophilicity profile / lipophilicity descriptors; for PC1(RM): score of first principal component of RM values at isopropanol 70–90%; for b (slope): slope of RM versus isopropanol concentration; for φ0 (chromatographic hydrophobic index): φ0 = RM0/b
Procedure: Lipophilicity was assessed by RP-TLC, using RP-[…] standard silica gel plates (20 × 10 cm) as the stationary phase. An isopropanol:water binary mixture was used as the mobile phase, with different isopropanol concentrations 70%, 75%, 80%, 85%, 90% for thiazolo[3,2-b][1,2,4]triazole (1a–16a) and imidazo[2,1-b][1,3,4]thiadiazole (1b–16b) compounds.
The standard solutions (1 mg/mL) used to investigate the lipophilicity of the synthesized compounds were prepared in dichloromethane (1a–16a compounds) and dimethylsulfoxide (1b–16b compounds). From the obtained solutions, 2 µL was applied manually on the chromatographic plates, at 15 mm from the baseline and 5 mm from the edges of the plate at a spot distance of 12 mm. This procedure was repeated three times. The chromatographic plate upward elution was performed in a chromatographic chamber previously saturated for 30 min with mobile phase, at normal atmospheric pressure and room temperature. The migration distance of the eluent was 80 mm. The chromatographic plates were visually inspected under UV light at λ = 254 nm to identify the compounds. In order to minimize possible experimental errors, three measurements were performed for each mobile phase. The retention factors (Rf) were calculated as the average of three determinations in each case.
Based on the Rf values, a variety of parameters can be determined to estimate the lipophilicity of the compounds. The isocratic retention factor (RM) was determined using the Bate–Smith and Westall equation [34]:RM = log(1/Rf − 1) where Rf = x/y and x = the migration distance of the compound, and y = the migration distance of the solvent front.
There is usually a linear correlation between the RM values and the concentration of the organic component in the mobile phase. For a better estimation of lipophilicity, RM0 was determined as the extrapolated retention factor, considering pure water as the mobile phase (Soczewinski Wachtmeister equation):RM = RM0 + bC where b is the slope of the curve, which indicates the rate at which the solubility of the compound increases in the mobile phase, C is the concentration of the isopropanol in the mobile phase, and RM0 is the RM of the compound when the concentration of isopropanol is zero (extrapolated value).
To estimate the lipophilicity of the compounds, φ0, representing the chromatographic hydrophobicity index, was also determined. It corresponds to the percentage (by volume) of the organic component in the mobile phase and can be determined according to the following formula:φ0 = RM0/b
In order to assess the lipophilicity of compounds, other more relevant lipophilicity parameters have been used, such as the arithmetic mean of the experimental retention factors (mRM), and the score associated with the first principal component (PC1(RM)) obtained by applying principal component analysis (PCA) to the retention parameters RM [35, 36]. The determination of these parameters eliminates the errors that appear during the extrapolation procedure (when determining RM0) so that the results are more accurate.

[2] = set-up: method as in doi:10.31925/farmacia.2018.5.20, PMID 30248903; settings: acute inflammation, compared to diclofenac; cited from earlier work
[3] = set-up: method as in doi:10.31925/farmacia.2018.5.20, PMID 30248903; settings: in vivo; cited from earlier work

Row | Compound | mRM (arithmetic mean of the experimental retention factors RM) [1] | RM0 (relative lipophilicity, RM extrapolated to pure water) [1] | lipophilicity (in words) [1] | PC1(RM) [1] | b (slope) [1] | φ0 (chromatographic hydrophobic index) [1] | in vivo anti-inflammatory activity [2] | pain threshold [3]
1 | NS(=O)(=O)c1ccc(-c2nc3scc(-c4ccccc4)n3n2)cc1 [Compound 13a] | −0.555 | 1.472 | the least lipophilic compounds | 1.875 | −0.026 | 57.72 | significantly reduced acute inflammation in vivo | increased pain threshold
2 | COc1ccc(-c2csc3nc(-c4ccccc4)nn23)cc1 [Compound 4a] | 0.031 | 1.612 | low lipophilicity | −0.216 | −0.020 | 81.40 | significantly reduced acute inflammation in vivo | increased pain threshold
3 | COc1ccc(-c2nc3scc(-c4ccccc4)n3n2)cc1 [Compound 9a] | 0.006 | 1.705 | low lipophilicity | −0.127 | −0.021 | 80.40 | significantly reduced acute inflammation in vivo | increased pain threshold
4 | c1ccc(-c2cn3nc(-c4ccccc4)sc3n2)cc1 [Compound 1b] | 0.072 | 1.955 |  | −0.365 | −0.024 | 83.18 | significantly reduced acute inflammation in vivo | increased pain threshold
5 | COc1ccc(-c2nc3scc(-c4ccc(OC)cc4)n3n2)cc1 [Compound 12a] | −0.013 | 1.696 | low lipophilicity | −0.058 | −0.021 | 79.62 | significantly reduced acute inflammation in vivo | increased pain threshold

Now from value to compound, other results behind:

Row | mRM (arithmetic mean of the experimental retention factors RM) [1] | RM0 (relative lipophilicity, RM extrapolated to pure water) [1] | lipophilicity (in words) [1] | PC1(RM) [1] | b (slope) [1] | φ0 (chromatographic hydrophobic index) [1] | Compound | in vivo anti-inflammatory activity [2] | pain threshold [3]
6 | 0.097 | 1.460 | low lipophilicity | −0.450 | −0.017 | 85.89 | COc1ccc(-c2cn3nc(-c4ccc(OC)cc4)sc3n2)cc1 [Compound 12b] | significantly reduced acute inflammation in vivo | increased pain threshold
7 | −0.464 | 0.988 | the least lipophilic compounds | 1.554 | −0.018 | 53.99 | NS(=O)(=O)c1ccc(-c2nn3cc(-c4ccccc4)nc3s2)cc1 [Compound 13b] | significantly reduced acute inflammation in vivo | increased pain threshold
8 | 0.144 | 2.270 |  | −0.624 | −0.027 | 85.32 | Clc1ccc(-c2nn3cc(-c4ccccc4)nc3s2)cc1 [Compound 5b] | significantly reduced acute inflammation in vivo | increased pain threshold
9 | 0.138 | 1.900 | low lipophilicity | −0.596 | −0.022 | 85.59 | COc1ccc(-c2nn3cc(-c4ccccc4)nc3s2)cc1 [Compound 9b] | significantly reduced acute inflammation in vivo | increased pain threshold
